Results published in ChEMBL document CHEMBL1221206, “Targeting virulence: a new paradigm for antimicrobial therapy” (Nat Chem Biol, 2007).

Tested on: 5637
Assay: Inhibition of type-1 pilus-mediated Escherichia coli HB101 adhesion to human 5637 cells after 1 hr
Type: cell-based
Conditions: dose or concentration not given here

Structure (SMILES): CN(C)Cc1c(Cc2cccc3ccccc23)c(-c2ccccc2)c2n(c1=O)[C@H](C(=O)O)CS2
- inhibition: 90%
